Measured values reported in article PMC6238539, “Discovery of a cofactor-independent inhibitor of Mycobacterium tuberculosis InhA” (Life Science Alliance, 2018).
Read-outs that look alike come from different tables or passages of the source.

What was measured:
M. tuberculosis H37Rv [1] = test: microbe, parasite or virus in culture; assay type: cell-based, Mycobacterium tuberculosis; conditions: for IC90: Mycobacterium tuberculosis, H37RV, whole-cell M. tuberculosis
M. tuberculosis InhA [2] = biological target: T1, M. tuberculosis InhA (Mycobacterium tuberculosis, UniProt P9WGR1); test: InhA in vitro inhibition assay; assay type: biochemical
T1 sequence (P9WGR1 whole entry, looked up): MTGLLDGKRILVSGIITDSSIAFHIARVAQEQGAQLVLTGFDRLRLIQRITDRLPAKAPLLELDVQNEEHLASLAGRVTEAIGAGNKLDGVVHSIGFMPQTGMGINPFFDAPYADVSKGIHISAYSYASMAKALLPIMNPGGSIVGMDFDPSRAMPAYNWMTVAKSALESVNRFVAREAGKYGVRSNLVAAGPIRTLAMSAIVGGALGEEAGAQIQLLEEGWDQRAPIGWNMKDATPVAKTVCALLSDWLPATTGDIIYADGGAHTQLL

M. tuberculosis InhA [3] = biological target: T1, M. tuberculosis InhA; test: biochemical; assay type: binding
M. tuberculosis Erdman = assay type: in vivo, Mycobacterium tuberculosis; conditions: dose escalation study (Table S4), 25 mg/kg, day 22
in vitro [4] = conditions: human
[5] = system: intracellular M. tuberculosis in THP-1 cells; test: microbe, parasite or virus in culture; assay type: cell-based; conditions: Mycobacterium tuberculosis
in vitro [6] = assay type: cell-based; conditions: human; read-out: HepG2 cytotoxicity IC50
Description: HepG2 human liver cells (ATCC HB 8065) were propagated in DMEM containing either 25 mM glucose or 10 mM galactose plus 10% vol/vol FBS, 1 mM sodium pyruvate, 2 mM Corning glutagro, 100 U/ml penicillin, and 100 μg/ml streptomycin. The cells were seeded in 384-well plates at 1,800 cells per well and incubated in a humidified incubator at 37°C, 5% CO2. Compounds were solubilized in DMSO and assayed using a 10-point threefold serial dilution. Compounds were added 24 h post cell seeding to a final assay concentration of 1% DMSO and highest compound concentration of 100 μM. The cells were incubated for 72 h and viability measured using CellTiter-Glo reagent (Promega) and reading RLU. Growth inhibition curves were fitted using the Levenberg–Marquardt algorithm. The IC50 was defined as the compound concentration that produced 50% of the inhibitory response against HepG2 cells.

M. tuberculosis H37Rv [7] = test: Kill kinetics under replicating conditions; assay type: cell-based, Mycobacterium tuberculosis

In the case of `CCS(=O)(=O)N1N=Cc2cc(Oc3ccc(C(F)(F)F)cc3/C=N/O)ccc2B1O` [AN12908], the IC90 (M. tuberculosis H37Rv [1]) is reported as 7 ± 2.6 µM, the IC50 (M. tuberculosis InhA [2]) is reported as 2.3 µM and the “cofactor dependence of binding to InhA” value (M. tuberculosis InhA [3]) is reported as “dependent on NAD^+ for binding”. For the same compound, the Kd (M. tuberculosis InhA [3]; cofactor: NAD^+) was 0.847 ± 0.318 µM, the “N (stoichiometry of binding)” value (M. tuberculosis InhA [3]; cofactor: NAD^+) was 0.49 ± 0.022 and the “∆H” value (M. tuberculosis InhA [3]; cofactor: NAD^+) was −25,010 ± 1,496 cal/mol. The “∆S” value (M. tuberculosis InhA [3]; cofactor: NAD^+) was −56 cal/mol/deg.
`CS(=O)(=O)N1N=Cc2ccc(Oc3ccc(C#N)cc3)cc2B1O` [AN6534] showed an IC90 (M. tuberculosis H37Rv [1]) of 36 ± 1.7 µM and an IC50 (M. tuberculosis InhA [2]) of 79 µM.
For `N#Cc1ccc(Oc2ccc3c(c2)COB3O)c(/C=N/O)c1` [AN3438], the IC90 (M. tuberculosis H37Rv [1]) was 16 ± 1.2 µM and the IC50 (M. tuberculosis InhA [2]) was 12 µM.
With `NNC(=O)c1ccncc1` [INH, isoniazid] the IC90 (M. tuberculosis H37Rv [1]) was 0.2 µM, the “Mean ± SEM Log10 CFU” value (M. tuberculosis Erdman; lung) was 4.6 ± 0.06 Log10 CFU and the “Mean ± SEM Log10 CFU” value (M. tuberculosis Erdman; spleen) was 2.4 ± 0.15 Log10 CFU.
In the case of `OB1OCc2ccc(Oc3ccc(C(F)(F)F)cc3)cc21` [AN2918], the IC90 (M. tuberculosis H37Rv [1]) is reported as greater than 200 µM and the IC50 (M. tuberculosis InhA [2]) is reported as 44 µM.
For `CS(=O)(=O)N1N=Cc2ccc(Oc3ccc(C(F)(F)F)cc3/C=N/O)cc2B1O` [AN12541], the IC90 (M. tuberculosis H37Rv [1]) was 0.11 ± 0.21 µM, the “increase in potency against M. tuberculosis” value (M. tuberculosis H37Rv [1]; versus AN6534) was 350 fold and the IC50 (in vitro [4]) was greater than 50 µM. The IC50 (M. tuberculosis InhA [2]) was 0.4 µM, the “increase in potency against purified InhA” value (M. tuberculosis InhA [2]; versus AN6534) was 190 fold and the IC50 [5] was 0.046 ± 0.013 µM. The IC90 [5] was 0.11 ± 0.01 µM, the IC50 (in vitro [6]) was greater than 100 µM and the bactericidal activity (M. tuberculosis H37Rv [7]) was “similarly active”.
